The values that follow come from patent US8980848B2, “Flavonoid dimers and their use” (The Hong Kong Polytechnic University, priority 2010, dated 2015).

The IC50 is the midpoint of a concentration-inhibition curve. A low value points to higher potency. Usually EC50 stands for the midpoint of the concentration-response curve.

The nature of data set [1]: Tumor cell line cytotoxicity of flavonoid dimers, LCC6MDR. In kind it is cell-based, human. As to conditions: human, IC50 of compound alone. Here is the method: (§1) (b) Tumor Cell Line Cytotoxicity. The tumor cytotoxicity assays of flavonoid dimers were performed against LCC6, LCC6MDR and L929 cell lines. […] In brief, LCC6, LCC6MDR and L929 cells were seeded into 96-well flat bottom microtiter plate at 1×10^4 cells per well in a final volume of 100 μL media, respectively. A graded dose of flavonoid dimers was added into wells. The plate was incubated at 37° C. for 72 hrs at the atmosphere 5% CO2 in the air. The % of survivors was determined.

Data set [2] is described as follows: Cytotoxicity of flavonoid dimers, L929 mouse fibroblast. Format: cell-based. The settings on record: mouse, IC50 of compound alone, 72 hrs, mouse fibroblast. The method, then:
as §1

Data set [3] is described as follows: Tumor cell line cytotoxicity of flavonoid dimers, LCC6. In kind it is cell-based, human. The settings on record: human, IC50 of compound alone. The method, then:
as §1

Data set [4] deals with Pgp (LCC6MDR cells) (Homo sapiens, UniProt P08183). The data set is described as follows: Cell proliferation assay: Pgp-modulating activity, reversal of anticancer drug resistance in LCC6MDR cells. The settings on record: for RF (Relative Fold), cpd at 0.5 μM: RF = (IC50 without modulator)/(IC50 with 0.5 μM modulator); for RF (Relative Fold), cpd at 0.5 μM / RF (Relative Fold), cpd at 1 μM: paclitaxel; for RF (Relative Fold), cpd at 0.5 μM / RF (Relative Fold), cpd at 1 μM / EC50: LCC6MDR; for RF (Relative Fold), cpd at 1 μM: RF = (IC50 without modulator)/(IC50 with 1.0 μM modulator); for EC50: EC50 of compounds for reversing anticancer drug resistance (nM); for Therapeutic index: IC50 of compounds for L929/EC50 of compounds for lowering paclitaxel drug resistance.
Pgp (LCC6MDR cells), sequence (P08183 whole entry): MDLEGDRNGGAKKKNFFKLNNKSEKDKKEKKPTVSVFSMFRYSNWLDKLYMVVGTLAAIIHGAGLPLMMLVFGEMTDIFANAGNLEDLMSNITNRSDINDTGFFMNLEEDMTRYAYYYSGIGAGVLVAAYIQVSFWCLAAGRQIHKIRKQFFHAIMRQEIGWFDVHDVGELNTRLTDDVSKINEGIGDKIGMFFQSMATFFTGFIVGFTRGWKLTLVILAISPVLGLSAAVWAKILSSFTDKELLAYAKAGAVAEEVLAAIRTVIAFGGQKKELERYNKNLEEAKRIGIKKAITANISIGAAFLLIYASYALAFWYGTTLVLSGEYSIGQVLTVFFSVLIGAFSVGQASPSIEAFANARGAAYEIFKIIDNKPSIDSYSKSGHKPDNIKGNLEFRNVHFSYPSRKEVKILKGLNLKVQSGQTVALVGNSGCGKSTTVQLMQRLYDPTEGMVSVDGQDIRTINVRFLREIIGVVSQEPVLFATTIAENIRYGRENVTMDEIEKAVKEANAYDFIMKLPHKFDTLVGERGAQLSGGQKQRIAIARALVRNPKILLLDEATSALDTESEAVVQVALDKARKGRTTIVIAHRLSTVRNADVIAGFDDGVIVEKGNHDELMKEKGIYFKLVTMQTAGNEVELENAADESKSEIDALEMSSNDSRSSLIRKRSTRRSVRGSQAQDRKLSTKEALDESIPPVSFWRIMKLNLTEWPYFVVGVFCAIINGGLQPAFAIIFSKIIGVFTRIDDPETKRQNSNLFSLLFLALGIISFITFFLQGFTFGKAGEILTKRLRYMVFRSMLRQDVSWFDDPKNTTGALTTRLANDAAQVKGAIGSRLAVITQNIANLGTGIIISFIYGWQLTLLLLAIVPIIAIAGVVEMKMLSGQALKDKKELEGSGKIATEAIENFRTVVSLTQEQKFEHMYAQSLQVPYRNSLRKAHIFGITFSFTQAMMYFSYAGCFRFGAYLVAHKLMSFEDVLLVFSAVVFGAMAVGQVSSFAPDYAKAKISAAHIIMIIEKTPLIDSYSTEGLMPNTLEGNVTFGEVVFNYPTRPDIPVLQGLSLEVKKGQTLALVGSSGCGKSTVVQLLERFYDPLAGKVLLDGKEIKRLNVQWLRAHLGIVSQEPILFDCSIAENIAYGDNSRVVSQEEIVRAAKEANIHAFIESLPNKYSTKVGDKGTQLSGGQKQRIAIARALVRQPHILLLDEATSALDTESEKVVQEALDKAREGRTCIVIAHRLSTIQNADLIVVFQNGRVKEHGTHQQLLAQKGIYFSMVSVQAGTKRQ
Method: Cell Proliferation Assay. 6,000 cells of LCC6 or LCC6MDR and anticancer drugs (paclitaxel, vinblastine, vincristine, doxorubicin and mitoxantrone) were mixed with or without modulators to a final volume of 200 μL in each well of 96-well plates. […] The plates were then incubated for 5 days at 37° C. […] IC50 values were calculated from the dose-response curves of MTS assays (Prism 4.0).

The structures appear in SMILES notation.

As to `C/C=C/C[C@@H](C)C(=O)[C@H]1C(=O)N[C@@H](C(C)C)C(=O)N(C)CC(=O)N(C)[C@@H](CC(C)C)C(=O)N[C@@H](C(C)C)C(=O)N(C)[C@@H](CC(C)C)C(=O)N[C@@H](C)C(=O)N[C@H](C)C(=O)N(C)[C@@H](CC(C)C)C(=O)N(C)[C@@H](CC(C)C)C(=O)N(C)[C@@H](C(C)C)C(=O)N1C` [PSC833, reference compound], the values for the IC50 at 72 h in data set [1], in data set [2] and in data set [3] were 14.6 ± 2.2 µM, over 100 µM and 25.3 ± 4.3 µM, respectively.

Consider `O=c1cc(-c2ccc(OCCOCCN(CCOCCOc3ccc(-c4cc(=O)c5ccccc5o4)cc3)Cc3ccc4ccccc4n3)cc2)oc2ccccc12` [Compound 64g, 1,13-Bis[4′-(4H-chromen-4-on-2-yl)phenyl]-7-(2-quinolinylmethyl)-1,4,10,13-tetraoxa-7-azamidecane], for which the figures for the concentration for half-maximal inhibition (IC50) at 72 h in data set [1] (LCC6MDR cells), in data set [2] (L929 fibroblast cells) and in data set [3] (LCC6 cells) were over 100 µM, 8.5 ± 2.3 µM and over 100 µM, respectively. Further, in data set [4], the “RF (Relative Fold), cpd at 0.5 μM” value is “(66.6)”. Moreover, the “RF (Relative Fold), cpd at 1 μM” value in data set [4] was “(102.1)”.

Take `C[C@H](N)C(=O)N(CCOCCOc1ccc(-c2cc(=O)c3ccccc3o2)cc1)CCOCCOc1ccc(-c2cc(=O)c3ccccc3o2)cc1` [Compound 23b, 1,13-Bis[4′-(4H-chromen-4-on-2-yl)phenyl]-7-[(S)-2-amino-1-oxopropyl]-1,4,10,13-tetraoxa-7-azamidecane]: the IC50 at 72 h in data set [1] (LCC6MDR cells) was found to be 4.6 ± 0.2 µM; in data set [3] (LCC6 cells) it was 4.4 µM. For the same compound, the “RF (Relative Fold), cpd at 0.5 μM” value in data set [4] is reported as “(1.0)”.

`N#Cc1cc(CN(CCOCCOc2ccc(-c3cc(=O)c4ccccc4o3)cc2)CCOCCOc2ccc(-c3cc(=O)c4ccccc4o3)cc2)ccn1` [Compound 64c, 1,13-Bis[4′-(4H-chromen-4-on-2-yl)phenyl]-7-(4-(2-cyanopyridyl)methyl)-1,4,10,13-tetraoxa-7-azamidecane]: the concentration for half-maximal inhibition (IC50) at 72 h in data set [1] (LCC6MDR cells) is over 100 µM; in data set [2] (L929 fibroblast cells), over 50 µM; in data set [3] (LCC6 cells) it was over 100 µM. The “RF (Relative Fold), cpd at 0.5 μM” value in data set [4] was “(19.4)”. The “RF (Relative Fold), cpd at 1 μM” value in data set [4] is “(66.6)”.

Turning to `O=c1c(OCc2ccccc2)c(-c2ccc(OCCOCCNCCOCCOc3ccc(-c4oc5ccccc5c(=O)c4OCc4ccccc4)cc3)cc2)oc2ccccc12` [Compound 12e, 1,13-Bis[4′-((3-benzyloxy)-4H-chromen-4-on-2-yl)phenyl]-1,4,10,13-tetraoxa-7-azamidecane], the values for the IC50 at 72 h in data set [1] (LCC6MDR cells), in data set [2] (L929 fibroblast cells) and in data set [3] (LCC6 cells) were 4.4 ± 0.1 µM, 4.2 µM and 4.3 ± 0.5 µM, respectively. In addition, the “RF (Relative Fold), cpd at 0.5 μM” value in data set [4] was “(54.7)”.

On to `COc1ccc(CN(CCOCCOc2ccc(-c3cc(=O)c4ccccc4o3)cc2)CCOCCOc2ccc(-c3cc(=O)c4ccccc4o3)cc2)cc1` [Compound 42a, 1,13-Bis[4′-(4H-chromen-4-on-2-yl)phenyl]-7-(4-methoxybenzyl)-1,4,10,13-tetraoxa-7-azamidecane], for which the IC50 at 72 h was over 100 µM in data set [1] (LCC6MDR cells), over 100 µM in data set [2] (L929 fibroblast cells) and over 91 µM in data set [3] (LCC6 cells). The EC50 was 61 ± 6 nM in data set [4] (Daunorubicin); 63 ± 8 nM in data set [4] (Doxorubicin); 96 ± 27 nM in data set [4] (Mitoxantrone); 104 ± 7 nM in data set [4] (Paclitaxel); 94 ± 13 nM in data set [4] (Vinblasinte, vinblastine); 98 ± 5 nM in data set [4] (Vincristine). For the same compound, the Therapeutic index in data set [4] was over 961.5. Moreover, the “RF (Relative Fold), cpd at 0.5 μM” value in data set [4] is “(61.2)”. Also, in data set [4], the “RF (Relative Fold), cpd at 1 μM” value is recorded as “(117.8)”.

As for `O=c1cc(-c2ccc(OCCOCCN(CCOCCOc3ccc(-c4cc(=O)c5ccccc5o4)cc3)Cc3nc4ccccc4[nH]3)cc2)oc2ccccc12` [Compound 60, 1,13-Bis[4′-(4H-chromen-4-on-2-yl)phenyl]-7-(2-benzimidazolylmethyl)-1,4,10,13-tetraoxa-7-azamidecane], the half-inhibitory concentration (IC50) at 72 h in data set [1] (LCC6MDR cells) is over 100 µM; in data set [2] (L929 fibroblast cells), over 70 µM; in data set [3] (LCC6 cells), over 100 µM. The “RF (Relative Fold), cpd at 0.5 μM” value in data set [4] was “(21.9)”. In addition, the “RF (Relative Fold), cpd at 1 μM” value in data set [4] is on record as “(117.8)”.

In the case of `O=c1cc(-c2ccc(OCCOCCN(CCOCCOc3ccc(-c4cc(=O)c5ccccc5o4)cc3)Cc3ccc(O)cc3)cc2)oc2ccccc12` [Compound 42d, 1,13-Bis[4′-(4H-chromen-4-on-2-yl)phenyl]-7-(4-hydroxybenzyl)-1,4,10,13-tetraoxa-7-azamidecane], half-maximal inhibition in data set [1] (LCC6MDR cells) (IC50 at 72 h) was put at 5.3 ± 0.7 µM. For the same compound, half-maximal inhibition in data set [2] (L929 fibroblast cells) (IC50 at 72 h) was put at 4.8 ± 0.3 µM. The same compound came in with an IC50 at 72 h in data set [3] (LCC6 cells) of 5.4 ± 0.6 µM. Besides, the EC50 in data set [4] (Paclitaxel) was 141 ± 9 nM. For the same compound, in data set [4], the Therapeutic index was 34.0; the “RF (Relative Fold), cpd at 0.5 μM” value is recorded as “(117.8)”; the “RF (Relative Fold), cpd at 1 μM” value is listed as “(117.8)”.

Take `CC(C)(C)CC(=O)N(CCOCCOc1ccc(-c2cc(=O)c3ccccc3o2)cc1)CCOCCOc1ccc(-c2cc(=O)c3ccccc3o2)cc1` [Compound 33, 1,13-Bis[4′-(4H-chromen-4-on-2-yl)phenyl]-7-(tert-butylacetyl)-1,4,10,13-tetraoxa-7-azamidecane]: the IC50 at 72 h in data set [1] (LCC6MDR cells), in data set [2] (L929 fibroblast cells) and in data set [3] (LCC6 cells) was over 100 µM throughout. Besides, the “RF (Relative Fold), cpd at 0.5 μM” value in data set [4] is on record as “(18.9)”.

For the compound `O=c1cc(-c2ccc(OCCOCCN(CCOCCOc3ccc(-c4cc(=O)c5ccccc5o4)cc3)Cc3cc4c(cc3Cl)OCO4)cc2)oc2ccccc12` [Compound 42f, 1,13-Bis[4′-(4H-chromen-4-on-2-yl)phenyl]-7-[5-(6-chloropiperonyl)]-1,4,10,13-tetraoxa-7-azamidecane], the IC50 at 72 h in data set [1] (LCC6MDR cells), in data set [2] (L929 fibroblast cells) and in data set [3] (LCC6 cells) was over 100 µM in each case. In data set [4], the “RF (Relative Fold), cpd at 0.5 μM” value is listed as “(4.8)”. The “RF (Relative Fold), cpd at 1 μM” value in data set [4] is recorded as “(80.6)”.

For the compound `COc1cc(CN(CCOCCOc2ccc(-c3cc(=O)c4ccccc4o3)cc2)CCOCCOc2ccc(-c3cc(=O)c4ccccc4o3)cc2)cc(OC)c1` [Compound 44, 1,13-Bis[4′-(4H-chromen-4-on-2-yl)phenyl]-7-(3,5-dimethoxybenzyl)-1,4,10,13-tetraoxa-7-azamidecane], the IC50 at 72 h in data set [1] (LCC6MDR cells), in data set [2] (L929 fibroblast cells) and in data set [3] (LCC6 cells) was over 100 µM throughout. For the same compound, in data set [4], the “RF (Relative Fold), cpd at 0.5 μM” value is given as “(19.1)”. In addition, the “RF (Relative Fold), cpd at 1 μM” value in data set [4] is reported as “(51.0)”.

`CC(=O)Oc1ccc(CN(CCOCCOc2ccc(-c3cc(=O)c4ccccc4o3)cc2)CCOCCOc2ccc(-c3cc(=O)c4ccccc4o3)cc2)cc1` [Compound 42c, 1,13-Bis[4′-(4H-chromen-4-on-2-yl)phenyl]-7-(4-acetyloxybenzyl)-1,4,10,13-tetraoxa-7-azamidecane]: the half-maximal inhibitory concentration (IC50) at 72 h in data set [1] (LCC6MDR cells) worked out at 5.9 ± 0.7 µM. The compound further showed an IC50 at 72 h in data set [2] (L929 fibroblast cells) of 4.5 ± 0.1 µM. The IC50 at 72 h in data set [3] (LCC6 cells) is 6.6 ± 1 µM. Further, the half-maximal effective concentration (EC50) in data set [4] (Paclitaxel) amounted to 140 ± 12 nM. Also, in data set [4], the Therapeutic index stood at 32.1; the “RF (Relative Fold), cpd at 0.5 μM” value is “(95.7)”; the “RF (Relative Fold), cpd at 1 μM” value is listed as “(117.8)”.

Turning to `COc1cc(-c2cc(=O)c3ccccc3o2)ccc1OCCOCCN(CCOCCOc1ccc(-c2cc(=O)c3ccccc3o2)cc1OC)C(=O)OC(C)(C)C` [Compound 16b, 1,13-Bis[4′-((4H-chromen-4-on-2-yl)-3′-methoxyphenyl)]-7-(tert-butylformyl)-1,4,10,13-tetraoxa-7-azamidecane], the IC50 at 72 h was found to be 6.9 ± 2.9 µM in data set [1] (LCC6MDR cells), 33.3 µM in data set [2] (L929 fibroblast cells) and 8.3 ± 1.4 µM in data set [3] (LCC6 cells). In addition, the “RF (Relative Fold), cpd at 0.5 μM” value in data set [4] is “(8.7)”.

As for `O=c1cc(-c2ccc(OCCOCCN(CCOCCOc3ccc(-c4cc(=O)c5ccccc5o4)cc3)Cc3c(F)cccc3F)cc2)oc2ccccc12` [Compound 41, 1,13-Bis[4′-(4H-chromen-4-on-2-yl)phenyl]-7-(2,6-difluorobenzyl)-1,4,10,13-tetraoxa-7-azamidecane], in data set [1] (LCC6MDR cells), the IC50 at 72 h is over 100 µM. In data set [2] (L929 fibroblast cells), this compound came in with a concentration for half-maximal inhibition (IC50) at 72 h of over 100 µM. This compound came in with an IC50 at 72 h in data set [3] (LCC6 cells) of over 100 µM. In data set [4] (Paclitaxel), the EC50 was found to be 237 ± 91 nM. In data set [4], the Therapeutic index is listed as over 421.9; the “RF (Relative Fold), cpd at 0.5 μM” value is listed as “(34.0)”; the “RF (Relative Fold), cpd at 1 μM” value is on record as “(90.1)”.

As for `COc1cc(-c2cc(=O)c3ccccc3o2)ccc1OCCOCCNCCOCCOc1ccc(-c2cc(=O)c3ccccc3o2)cc1OC` [Compound 12b, 1,13-Bis[4′-((4H-chromen-4-on-2-yl)-3′-methoxyphenyl)]-1,4,10,13-tetraoxa-7-azamidecane], the half-maximal inhibitory concentration (IC50) at 72 h in data set [1] (LCC6MDR cells) stood at 23.8 ± 12.8 µM; in data set [3] (LCC6 cells), 12.8 ± 1.1 µM. In addition, in data set [4], the “RF (Relative Fold), cpd at 0.5 μM” value is reported as “(0.8)”.

For `COc1cccc2oc(-c3ccc(OCCOCCNCCOCCOc4ccc(-c5cc(=O)c6c(OC)cccc6o5)cc4)cc3)cc(=O)c12` [Compound 12d, 1,13-Bis[4′-((5-methoxy)-4H-chromen-4-on-2-yl)phenyl]-1,4,10,13-tetraoxa-7-azamidecane], the results for the half-maximal inhibitory concentration (IC50) at 72 h in data set [1] (LCC6MDR cells) and in data set [3] (LCC6 cells) were 10.2 ± 3.8 µM and 8.8 ± 2.7 µM, respectively. The “RF (Relative Fold), cpd at 0.5 μM” value in data set [4] is “(1.2)”.
